Source: patent US20100028892A1, “YEAST BASED EXPRESSION OF PROTEASES AND METHODS OF USE” (Burnham Institute for Medical Research, priority 2008, published 2010)

Columns and labels:
Format in all cases: cell-based
[1] = target: T1, Caspase1 (Homo sapiens, UniProt P29466); experiment: yeast 384 well β-galactosidase reporter assay, Caspase1 expressed alone; settings: Caspase1 in yeast, 384 well β-galactosidase activity assay
T1 construct: each full-length Caspase construct was expressed (for Caspases-1, 2, 3, 4, 5, 6, 7, and 9) at high levels; FLAG (C); HA (N); expressed in transfected cells; host or cells: Saccharomyces cerevisiae (EGY48)
T1 sequence (P29466 1-404): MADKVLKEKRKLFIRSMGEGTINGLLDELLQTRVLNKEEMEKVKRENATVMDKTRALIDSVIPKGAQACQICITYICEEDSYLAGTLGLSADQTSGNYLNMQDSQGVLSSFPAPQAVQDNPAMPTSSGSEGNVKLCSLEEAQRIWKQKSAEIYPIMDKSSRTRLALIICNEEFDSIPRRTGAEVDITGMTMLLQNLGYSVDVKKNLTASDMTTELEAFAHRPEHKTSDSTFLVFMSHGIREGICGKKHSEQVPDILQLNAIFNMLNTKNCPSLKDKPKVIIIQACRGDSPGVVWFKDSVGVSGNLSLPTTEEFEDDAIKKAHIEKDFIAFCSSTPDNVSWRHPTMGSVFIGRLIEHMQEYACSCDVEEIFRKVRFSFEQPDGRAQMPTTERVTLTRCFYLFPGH
Source text: (§1) When converting the yeast-based protease reporter system to HTS assay, conditions from agar plates to liquid medium in microtiter wells must be revised. This revision comprises, utilizing the measured β-galactosidase produced by yeast carrying the Caspase-cleavable reporter proteins, and assaying the colorimetric product (OD620nm) derived from X-gal substrate in 384 well plates, as a measure of the lacZ reporter gene activity. We compared β-galactosidase activity produced in the presence or absence of the broad-spectrum caspase inhibitory compound, zVAD-fmk ([…]-Valinyl-Alaninyl-Aspartyl-fluoromethylketone). […] Note that it was determined that it is not advisible to employ glucose in yeast media because it represses the GAL1 promoter used in some plasmids. […]
(§2) Yeast expressing various Caspases alone (at high levels) or in combination with upstream activators (at low levels) and cleavable substrates containing appropriate tetrapeptides reorganized by these proteases were used in 384 well β-galactosidase activity assays to assess inhibition by zVAD-fmk. The compound was titrated into assays at various concentrations and percentage inhibition was determined.
(§3) Assays were performed in a total volume of […] in triplicate. […] Absorbance at 620 nm was measured 2-3 days after culture at 30° C.

[2] = target: T2, Caspase7 (Homo sapiens, UniProt P55210); experiment: yeast 384 well β-galactosidase reporter assay, Caspase7; settings: Caspase7 in yeast, 384 well β-galactosidase activity assay
T2 construct: each full-length Caspase construct was expressed (for Caspases-1, 2, 3, 4, 5, 6, 7, and 9) at high levels; expressed in transfected cells; host or cells: Saccharomyces cerevisiae (EGY48)
T2 sequence (P55210 1-303): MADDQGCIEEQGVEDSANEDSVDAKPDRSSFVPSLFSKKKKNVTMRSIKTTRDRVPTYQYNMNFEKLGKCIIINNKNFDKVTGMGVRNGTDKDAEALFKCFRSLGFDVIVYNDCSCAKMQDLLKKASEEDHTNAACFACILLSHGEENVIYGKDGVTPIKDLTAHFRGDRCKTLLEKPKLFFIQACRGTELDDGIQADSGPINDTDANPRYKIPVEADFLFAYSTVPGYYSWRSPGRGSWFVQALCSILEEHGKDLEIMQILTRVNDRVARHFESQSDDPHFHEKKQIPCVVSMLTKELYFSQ
Source text: as §1, §2, §3

[3] = target: T3, Caspase8 activated with FADD + Fas (Homo sapiens, UniProt Q14790); experiment: yeast 384 well β-galactosidase reporter assay, Caspase8 activated with FADD + Fas; settings: Caspase8 activated with FADD + Fas in yeast, 384 well β-galactosidase activity assay
T3 construct: a small amount of each full-length Caspase construct was expressed with a large amount of adaptor protein FADD; HA (C); expressed in transfected cells; host or cells: Saccharomyces cerevisiae EGY48
Source text: as §1, §2, §3

[4] = target: T4, Caspase10 activated with FADD (Homo sapiens, UniProt Q92851); experiment: yeast 384 well β-galactosidase reporter assay, Caspase10 activated with FADD; settings: Caspase10 activated with FADD in yeast, 384 well β-galactosidase activity assay
T4 construct: a small amount of each full-length Caspase construct was expressed with a large amount of adaptor protein FADD; FLAG (C); expressed in transfected cells; host or cells: Saccharomyces cerevisiae EGY48
T4 sequence (Q92851 1-479 isoform Q92851-2): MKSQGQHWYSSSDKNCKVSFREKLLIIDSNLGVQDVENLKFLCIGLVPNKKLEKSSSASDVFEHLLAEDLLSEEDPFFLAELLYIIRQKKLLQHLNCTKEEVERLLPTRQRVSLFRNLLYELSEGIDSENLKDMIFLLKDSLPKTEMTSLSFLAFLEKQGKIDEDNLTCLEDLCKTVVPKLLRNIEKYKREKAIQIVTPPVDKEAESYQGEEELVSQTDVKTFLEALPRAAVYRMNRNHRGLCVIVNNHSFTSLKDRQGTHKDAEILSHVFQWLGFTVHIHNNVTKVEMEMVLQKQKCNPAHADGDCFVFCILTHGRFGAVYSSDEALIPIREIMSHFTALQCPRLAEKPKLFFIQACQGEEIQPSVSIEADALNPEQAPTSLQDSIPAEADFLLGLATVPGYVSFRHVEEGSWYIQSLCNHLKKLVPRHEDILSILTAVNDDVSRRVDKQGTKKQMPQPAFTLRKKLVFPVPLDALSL
Source text: as §1, §2, §3

T3 sequence (Q14790 217-374 limits assumed): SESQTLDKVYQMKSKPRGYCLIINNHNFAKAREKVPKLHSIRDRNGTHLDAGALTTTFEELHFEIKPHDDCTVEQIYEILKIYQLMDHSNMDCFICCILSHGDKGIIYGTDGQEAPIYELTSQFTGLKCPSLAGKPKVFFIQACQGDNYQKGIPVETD
T3 sequence (Q14790 385-479 limits assumed): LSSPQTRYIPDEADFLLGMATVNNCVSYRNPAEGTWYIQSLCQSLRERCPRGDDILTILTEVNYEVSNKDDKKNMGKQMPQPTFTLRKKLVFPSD

benzoyl-Valinyl-Alaninyl-Aspartyl-fluoromethylketone [zVAD-fmk]
IC50 [1]: 3.07 µM
IC50 [2]: 4.11 µM
IC50 [3]: 5.42 µM
IC50 [4]: 9.52 µM
